Assay results reported in patent publication US12384775B2, “Pyrimid-2-yl-pyrazole compounds as IRAK inhibitors” (Rigel Pharmaceuticals, Inc., priority 2022, dated 2025).
Where a name gives a salt, the structure may show the parent alone. Read-outs that look alike come from different tables or passages of the source.

Assays:
[1] = system: IL23p19 in THP-1 Cells; test: LPS induced IL23p19 in THP-1 cells (IFNγ primed), ELISA; type: cell-based; settings: Homo sapiens, THP-1 cells IFNγ primed, LPS 1 μg/mL, 18 h, read-out: IL23-p19 ELISA, THP1-IFNy, LPS, 10 pt EC50
Protocol: On day 1, 50K/well THP-1 cells were seeded and primed with IFNγ (50 ng/mL) in 384-well plates for about 18 hours in RPMI media with 10% FBS. On day 2, the compound was serially diluted in DMSO from 5 mM in 3-fold dilutions, and then diluted 1:125 in RPMI media with 10% FBS. 50 μL/well 2× compound was added to 50 μL/well THP-1 cells (with IFNγ primed) in duplicate in 384 well tissue culture plates. The cells were pre-incubated with compound for 1 hour at 37° C., 5% CO2 before addition of 10 μL/well 11×LPS to give a final concentration of 1 μg/mL LPS. Day 3, after stimulation for 18 hours at 37° C., 5% CO2, the assay plate was centrifuged and 70 μL/well supernatant was harvested. IL-23p19 protein in 70 μL/well of supernatant was measured by sandwich ELISA, and 25 μl/well Cell Titer Glo reagent was added to the remaining cells to measure compound toxicity.
Maxisorp immuno ELISA plates were pre-coated with 25 μL/well of anti-IL-23p19 capture antibody (2.5 ug/mL) in PBS overnight at room temperature. After washing with 1×PBST, the plates were blocked using 100 μL/well of 1% BSA in PBS for 2 hours at room temperature. The plates were washed three times with 1×PBST and 70 μL/well supernatant were added. The plates were incubated at room temperature for 2 hours with shaking and washed three times with 1×PBST. 25 μL/well of biotin labeled anti-IL-12 (p40/p70) detection antibody (100 ng/mL) in PBS with 1% BSA was added and the plates were incubated at room temperature for 2 hours with shaking. After washing three times with 1× PBST, 25 μL/well of streptavidin-HRP (1:200) in PBS with 1% BSA was added and the plates were incubated at room temperature for 20 minutes with shaking. The plates were washed three times with 1× PBST and 25 μL/well of Super Signal ELISA Pico Chemiluminescent Substrate were added. The plates were read with a luminometer, and the chemiluminescence values were entered into Athena (Rigel) for curve fitting, EC50 calculation, and database storage.
THP-1 cells (100K in 100 μL/well) were primed with 25 ng/mL IFN-γ for 18 hours at 37° C., 5% CO2. Compound was serially diluted in DMSO from 2.5 mM in 4-fold dilutions, and then diluted 1:125 in RPMI 1640 complete media with 10% FBS. 100 μL/well 2× compound was mixed with the 100 μL/well IFN-7 primed THP-1 in 96 well flat-bottom white tissue culture plates. The cells were pre-incubated with compound for 1 hour at 37° C., 5% CO2 and before addition of 10 μL/well 21×LPS to give a final concentration of […] for LPS. The cells were stimulated with LPS for 18 hours at 37° C., 5% CO2. After centrifugation, 100 μL/well supernatant was extracted by using a multichannel pipette. IL-23p19 or TNF-α protein in the supernatant were measured by sandwich ELISA. The remaining IFN-7 primed THP-1 cell pellets were used to perform cell viability assays to determine compound cell toxicity. The plates were read with a luminometer, and the chemiluminescence values were entered into Athena (Rigel) for curve fitting, EC50 calculation, and database storage.
Maxisorp immuno ELISA plates were pre-coated with 100 μL/well of anti-IL-23p19 capture antibody (2.4 μg/mL) in PBS overnight at room temperature. After washing with 1×PBST, the plates were blocked using 300 μL/well of 1% BSA in PBS for 2 hours at room temperature. The plates were washed three times with 1×PBST and 100 μL/well supernatant was added. The plates were incubated at room temperature for 2 hours with shaking. The plates were washed three times with 1×PBST and 100 μL/well of biotin anti-human IL-12 (p40/70) detection antibody (10 ng/mL) in PBS with 0.1% BSA were added. The plates were incubated at room temperature for 2 hours with shaking. The plates were washed three times with 1×PBST and 100 μL/well streptavidin-HRP (1:200) in PBS with 0.1% BSA was added. The plates were incubated at room temperature for 20 minutes with shaking. […]

[2] = biological target: T1, IRAK4 (Homo sapiens, UniProt Q9NWZ3); test: IRAK4 ADP-Glo kinase assay; type: biochemical; settings: read-out: IRAK4 ADP-Glo Kinase, 8 pt EC50
T1 construct: purchased Signalchem I12-10G-20
T1 sequence (Q9NWZ3 1-460): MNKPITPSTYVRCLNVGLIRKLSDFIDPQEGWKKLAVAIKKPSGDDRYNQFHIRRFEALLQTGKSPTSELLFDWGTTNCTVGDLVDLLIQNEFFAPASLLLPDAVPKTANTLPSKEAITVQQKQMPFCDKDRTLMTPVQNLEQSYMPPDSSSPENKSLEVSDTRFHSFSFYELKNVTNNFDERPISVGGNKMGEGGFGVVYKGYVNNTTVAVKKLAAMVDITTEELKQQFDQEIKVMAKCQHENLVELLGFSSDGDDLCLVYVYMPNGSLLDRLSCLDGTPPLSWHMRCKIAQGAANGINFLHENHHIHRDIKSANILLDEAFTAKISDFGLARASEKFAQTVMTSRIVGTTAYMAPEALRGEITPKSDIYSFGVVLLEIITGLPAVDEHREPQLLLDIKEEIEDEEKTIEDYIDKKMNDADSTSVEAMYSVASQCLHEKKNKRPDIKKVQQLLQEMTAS
Protocol: The ADP-Glo™ reagents were thawed at ambient temperature. The Kinase Detection Reagent was prepared by mixing kinase detection buffer with the lyophilized kinase detection substrate, and set aside.
A stock volume of 5× Reaction Kinase Buffer was made with a final concentration of 100 mM MgCl2, 200 mM Tris-HCl, and 0.5 mg/ml of BSA, in distilled H2O with a final pH7.4. A 2× working stock volume of Reaction Kinase Buffer was made containing a final concentration of 100 μM DTT.
The components of IRAK4 Enzyme were thawed on ice. Diluted IRAK4 in 1× Kinase Reaction Buffer (diluted from 2× buffer) was prepared at […]. A 250 μM working stock ATP Assay Solution was prepared in 1× Kinase Reaction Buffer (diluted from 2× buffer).
The compound was diluted in DMSO from 250 µM in 4-fold series dilutions for 8 points. Then diluted 1:5 in 2× Reaction Buffer in a 96 well plate. 1.0 μl was transferred to a 384 well plate in duplicate. […] 1 μl of 1 mg/ml stock solution of MBP substrate was added NOTE: MBP can be combined with ATP mix with equal volume and then added at 2 μl/well. Final reaction volume was 5 μl. The plate was centrifuged and the reaction mixture was incubated at room temperature for 60 minutes or at 30° C. for 30 minutes.
The reaction was terminated and the remaining ATP was depleted by adding 5 μl of ADP-Glo™ Reagent. The 384-well plate was centrifuged and then the reaction mixture was incubated for another 40 minutes at ambient temperature.
10 μl of the Kinase Detection Reagent was added. The plate was centrifuged and then the reaction mixture was incubated for another 30 minutes at ambient temperature.
The 384-well reaction plate was read using the WALLAC plate reader (Luminescence 0.1s).

[3] = biological target: IRAK1 (Homo sapiens, UniProt P51617); test: IRAK1 ADP-Glo kinase assay; type: biochemical; settings: read-out: IRAK1 ADP-Glo Kinase, 8 pt EC50
[4] = Bioavailability of prodrug I-3, monkey; type: in vivo; settings: measured as amount of parent compound I-1 detected
[5] = Bioavailability of prodrug I-3, rat; type: in vivo; settings: measured as amount of parent compound I-1 detected
[6] = Bioavailability of prodrug I-3, dog; type: in vivo; settings: measured as amount of parent compound I-1 detected
[7] = Bioavailability of prodrug I-3, mouse; type: in vivo; settings: measured as amount of parent compound I-1 detected

Chain of IRAK1 (P51617 whole entry): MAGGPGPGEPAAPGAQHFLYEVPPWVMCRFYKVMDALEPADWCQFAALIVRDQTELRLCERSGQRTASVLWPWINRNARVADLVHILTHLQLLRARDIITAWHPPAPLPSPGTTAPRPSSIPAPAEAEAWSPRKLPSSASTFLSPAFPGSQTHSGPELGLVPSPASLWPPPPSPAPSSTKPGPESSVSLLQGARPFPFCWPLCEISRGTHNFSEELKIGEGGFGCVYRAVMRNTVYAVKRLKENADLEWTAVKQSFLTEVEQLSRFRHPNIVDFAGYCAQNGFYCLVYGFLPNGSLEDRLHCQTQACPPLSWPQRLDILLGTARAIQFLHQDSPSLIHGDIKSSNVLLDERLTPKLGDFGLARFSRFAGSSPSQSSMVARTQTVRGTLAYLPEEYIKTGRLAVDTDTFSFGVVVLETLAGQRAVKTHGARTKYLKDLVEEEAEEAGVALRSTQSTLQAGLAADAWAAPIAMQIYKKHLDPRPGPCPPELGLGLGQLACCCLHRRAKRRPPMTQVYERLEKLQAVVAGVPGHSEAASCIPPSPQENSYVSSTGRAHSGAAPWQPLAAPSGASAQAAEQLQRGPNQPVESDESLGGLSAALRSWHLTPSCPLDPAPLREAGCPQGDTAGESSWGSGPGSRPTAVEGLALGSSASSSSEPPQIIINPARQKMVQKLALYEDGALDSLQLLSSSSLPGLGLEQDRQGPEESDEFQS

Row | Compound | EC50 [1] | EC50 [2] | EC50 [3] | Bioavailability (% F) of Compound I-3 [4] | EC50 ([1]; THP-1, 18 h) | Bioavailability (% F) of Compound I-3 [5] | Bioavailability (% F) of Compound I-3 [6] | Bioavailability (% F) of Compound I-3 [7]
1 | CCO[C@H]1CC[C@H](n2cc(NC(=O)c3csc(-c4cnn(COP(=O)(O)O)c4)n3)c(-c3ncccn3)n2)CC1 [Compound I-2, (4-(4-((1-((1r,4r)-4-ethoxycyclohexyl)-3-(pyrimidin-2-yl)-1H-pyrazol-4-yl)carbamoyl)thiazol-2-yl)-1H-pyrazol-1-yl)methyl dihydrogen phosphate] | 11 nM | 46.4 nM | 3910 nM |  |  |  |  | 
2 | CCO[C@H]1CC[C@H](n2cc(NC(=O)c3csc(-c4cnn(COP(=O)(O)O)c4)n3)c(-c3ncccn3)n2)CC1 [Compound I-3, sodium (4-(4-((1-((1r,4r)-4-ethoxycyclohexyl)-3-(pyrimidin-2-yl)-1H-pyrazol-4-yl)carbamoyl)thiazol-2-yl)-1H-pyrazol-1-yl)methyl phosphate] |  | 128 nM | 61.8 nM | 71 % F | 54.4 nM | 12 % F | 53 % F | 34 % F
3 | CCO[C@H]1CC[C@H](n2cc(NC(=O)c3csc(-c4cn[nH]c4)n3)c(-c3ncccn3)n2)CC1 [Compound I-4, N-(1-((1r,4r)-4-ethoxycyclohexyl)-3-(pyrimidin-2-yl)-1H-pyrazol-4-yl)-2-(1H-pyrazol-4-yl)thiazole-4-carboxamide tartaric acid salt] |  | 18.8 nM | 28.1 nM |  | 2.5 nM |  |  | 
